According to patent US10100077B2, “6-aryl-9-glycosylpurines and use thereof” (UNIVERZITA PALACKEHO V OLOMOUCI, priority 2014, dated 2018):

Columns and labels:
[1] = system: Arabidopsis wild-type plants (Col-0) detached leaves; test: Differential gene expression study (RNA sequencing) in senescent detached leaves; details: 48 h, 10 μM
Experimental: Comparative gene expression analysis in Arabidopsis model was performed to gain information about the reprogramming of gene transcription when senescent leaves were treated with 6-(3-methoxybenzylamino)-9-β-D-arabinofuranosylpurine (3MeOBAPA).
For isolation of total RNA, Arabidopsis wild-type plants (Col-0) were used, which were either treated with 3MeOBAPA or left untreated. Wild-type plants were grown in soil for 30 days, and then leaves of similar size and chlorophyll content were cut and immediately used for the treatment. At least 20 detached leaves were submerged in 1×MS medium supplemented with 10 μM 3MeOBAPA. Control samples were mock treated with DMSO only. After incubation for 6 h or 48 h in the dark, detached leaves were frozen in liquid nitrogen and used for RNA isolation; 150 mg of liquid nitrogen-ground material was used per isolation. cDNA sequencing libraries were prepared with the Illumina TruSeq Stranded mRNA LT Sample Prep Kit (Illumina, San Diego, Calif.) according to standard Illumina's protocols and sequenced on HiSeq 2500 apparatus (50 bp single-end reads). […] To gain insight into the molecular mechanism of 3MeOBAPA action in Arabidopsis we decided to analyze the gene expression patterns via comparison of mock (DMSO)-treated plants with those obtained after i) short time treatment with 3MeOBAPA (6 h) and ii) long time treatment (48 h). This comparison leads to identification of group of genes with similar kinetic of expression and helps to understand possible mechanism of regulation. For data analysis, we performed ab initio method where sequencing reads were mapped to the reference genome.

[2] = system: EpiDERM 3D model of epidermis; test: In vitro test of skin irritation in EpiDERM; assay type: cell-based
Experimental: EpiDERM™ is a 3D model of epidermis manufactured by Mattek company. The effects of tested substances are evaluated by MTT. 2 solutions (2 application forms) of the compounds 6-furfurylamino-9-β-D-arabinofuranosylpurine and 6-(3-methoxybenzylamino)-9-β-D-arabinofuranosylpurine in concentrations 1 mM a 200 microM in 0.5% DMSO/99.5% PBS were evaluated according to a standard protocol “INVITRO EpiDerm™ SKIN IRRITATION TEST”. After a preincubation of the tissues, 30 microliters of the application form solution were applied on the individual tissues. The exposition time was 60 minutes. Three tissues were used for each tested concentration as well as for controls. Following washing out of the applied solution, the tissues were incubated for 42 hour in order to allow a reparation of possible damage. In the next step, the tissue was incubated with MTT for 3 hours. The resulting formazan was extracted to isopropanol. Relative viability of the individual tissues was calculated as a percentage of viability of the average of the negative controls. Average viability of the tissues treated with 1 mM solution of the test substance was 99.3% for the compound 6-(3-methoxybenzylamino)-9-β-D-arabinofuranosylpurine and 98.0% for the compound 6-(furfurylamino)-9-β-D-arabinofuranosylpurine where 100% is an average viability of the tissues treated with the solvent only. None of the tested compounds in any of the concentrations caused any tissue damage or irritation. The compounds were evaluated as non-irritant in the tested concentrations.

## COc1cccc(CNc2ncnc3c2ncn3[C@@H]2O[C@H](CO)[C@@H](O)[C@@H]2O)c1 [6-(3-methoxybenzylamino)-9-β-D-arabinofuranosylpurine]
[1]
  logFC AT1G02790 Polygalacturonase 4 (PGA4): 8.59
  logFC AT1G05580 Cation/H(+) exchanger 23 (CHX23): 5.46
  logFC AT1G10585 Basic helix-loop-helix (bHLH) DNA-binding superfamily protein: 4.85
  logFC AT1G15540 2-oxoglutarate and Fe(II)-dependent oxygenase superfamily protein: 5.63
  logFC AT1G19670 Chlorophyllase-1 (CLH1): 6.42
  logFC AT1G55560 SKU5 similar 14 (SKS14): 8.75
  logFC AT1G59860 17.6 kDa class I heat shock protein 1 (HSP17.6A): 5.47
  logFC AT1G59950 NAD(P)-linked oxidoreductase superfamily protein: 5.72
  logFC AT1G75830 Defensin-like protein 1.1 (PDF1.1): 7.85
  logFC AT1G76640 Calcium-binding EF-hand family protein (CML39): 7.06
  logFC AT2G02010 Glutamate decarboxylase 4 (GAD4): 5.09
  logFC AT2G04460 Transposable element gene: 5.43
  logFC AT2G18150 Peroxidase 15 (PER15): 7.22
  logFC AT2G21900 WRKY transcription factor 59 (WRKY59): 5.81
  logFC AT2G26010 Defensin-like protein 1.3 (PDF1.3): 8.23
  logFC AT2G26020 Defensin-like protein 1.2B (PDF1.2B): 6.04
  logFC AT2G26695 Ran BP2/NZF zinc finger-like superfamily protein: 5.90
  logFC AT2G28210 Alpha carbonic anhydrase 2 (ATACA2): 5.86
  logFC AT2G37430 Zinc finger protein ZAT11: 4.96
  logFC AT2G39030 L-ornithine N5-acetyltransferase (NATA1): 5.48
  logFC AT2G47040 Pectin methylesterase Vanguard1 (VGD1): 5.89
  logFC AT2G47050 Plant invertase/pectin methylesterase inhibitor superfamily protein: 5.82
  logFC AT3G05610 Pectinesterase/pectinesterase inhibitor 21 (PME21): 5.58
  logFC AT3G07820 Pectin lyase-like superfamily protein: 6.45
  logFC AT3G09340 Transmembrane amino acid transporter family protein: 8.54
  logFC AT3G11340 UDP-Glycosyltransferase superfamily protein: 6.60
  logFC AT3G13400 SKU5 similar 13 (SKS13): 5.57
  logFC AT3G28153 Transposable element gene: 5.70
  logFC AT3G28155 ARM repeat superfamily protein: 6.06
  logFC AT3G44830 Putative phospholipid: diacylglycerol acyltransferase 2 (PDAT2): 4.91
  logFC AT3G62710 Glycosyl hydrolase family protein: 5.26
  logFC AT4G01390 TRAF-like family protein: 6.24
  logFC AT4G21830 Peptide methionine sulfoxide reductase B7 (MSRB7): 5.95
  logFC AT4G22030 F-box domain, cyclin-like, F-box domain, Skp2-like protein: 5.02
  logFC AT4G22620 SAUR-like auxin-responsive family protein: 5.05
  logFC AT4G24350 Phosphorylase superfamily protein: 6.45
  logFC AT4G26010 Peroxidase 44 (PER44): 7.92
  logFC AT4G31950 Cytochrome P450 82C3 (CYP82C3): 5.29
  logFC AT4G35010 Beta-galactosidase 11 (BGAL11): 5.33
  logFC AT4G37780 Myb domain protein 87 (MYB87): 6.88
  logFC AT4G39320 Microtubule-associated protein-related: 5.09
  logFC AT5G03610 GDSL esterase/lipase: 4.61
  logFC AT5G12960 Putative glycosyl hydrolase: 5.26
  logFC AT5G44420 Defensin-like protein 1.2A (PDF1.2A): 8.15
  logFC AT5G44430 Defensin-like protein 1.2C (PDF1.2C): 8.87
  logFC AT5G45880 Pollen Ole e 1 allergen and extensin family protein: 5.52
  logFC AT5G52670 Copper transport family protein: 6.03
  logFC AT5G61160 Agmatine coumaroyltransferase (ACT): 5.05
  logFC AT5G62720 Integral membrane HPP family protein: 5.31
  logFC AT5G63270 RPM1-interacting protein 4 (RIN4) family protein: 7.11
[1]; vs mock
  number of downregulated genes (P≤0.05): 7095 genes
  number of upregulated genes (P≤0.05): 7509 genes
[2]; 1 mM and 200 microM in 0.5% DMSO/99.5% PBS
  skin irritation evaluation: non-irritant
[2]; 1 mM solution, 60 minutes exposition, 100% = solvent only
  Average viability of the tissues: 99.3%
